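Method: 48-hour compound exposure of cells in 96-well plates, five concentrations, linear interpolation of endpoints. The concentration for 50% growth inhibition is given as GI50.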 Active and inactive are the calls of the source. No stated cut-off is given here; in the data, active = GI50 up to about 1.1 µM and inactive = higher.
What was measured:
Experiment in all cases: NCI-60 cell line screen, 48 h
[1] = tested on: ACHN
[2] = tested on: BT-549
[3] = tested on: CCRF-CEM
[4] = tested on: DU-145
[5] = tested on: EKVX
[6] = tested on: HT-29
[7] = tested on: Hs-578T
[8] = tested on: IGROV-1
[9] = tested on: KM12
[10] = tested on: LOX IMVI
[11] = tested on: MCF7
[12] = tested on: MOLT-4
[13] = tested on: NCI/ADR-RES
[14] = tested on: OVCAR-8
[15] = tested on: PC-3
[16] = tested on: RXF 393
[17] = tested on: SK-MEL-28
[18] = tested on: SK-OV-3
[19] = tested on: SR
[20] = tested on: UACC-257

Compound	GI50 [1]	GI50 [2]	GI50 [3]	GI50 [4]	GI50 [5]	GI50 [6]	GI50 [7]	GI50 [8]	GI50 [9]	GI50 [10]	GI50 [11]	GI50 [12]	GI50 [13]	GI50 [14]	GI50 [15]	GI50 [16]	GI50 [17]	GI50 [18]	GI50 [19]	GI50 [20]
C/C(CC(O)(C(F)(F)Cl)C(F)(F)Cl)=N\Nc1ccccc1	27 µM (inactive)	33.6 µM (inactive)	29 µM (inactive)	49 µM (inactive)	23.1 µM (inactive)	42.9 µM (inactive)	27.2 µM (inactive)	36.3 µM (inactive)	29.1 µM (inactive)	27.5 µM (inactive)	23.2 µM (inactive)	23.4 µM (inactive)	24.8 µM (inactive)	36.7 µM (inactive)	22.2 µM (inactive)	19.2 µM (inactive)	47.2 µM (inactive)	29.4 µM (inactive)	39.1 µM (inactive)	44.7 µM (inactive)
O=C1N/C(=N/N=C\c2ccccc2)N/C1=C/c1ccccc1	13.2 µM (inactive)	22.9 µM (inactive)	23.2 µM (inactive)	22.3 µM (inactive)	23.8 µM (inactive)	24.9 µM (inactive)	27.3 µM (inactive)	24.8 µM (inactive)	22.5 µM (inactive)	35.9 µM (inactive)	31.5 µM (inactive)	14.4 µM (inactive)	22.9 µM (inactive)	26.2 µM (inactive)	24.9 µM (inactive)	30 µM (inactive)	85.1 µM (inactive)	37.7 µM (inactive)	16.1 µM (inactive)	53.6 µM (inactive)
COc1ccc(C(OCC2OC(n3cc(C)c(=O)[nH]c3=O)CC2n2cc(Cn3cc(Cl)c(=O)[nH]c3=O)nn2)(c2ccccc2)c2ccccc2)cc1 (stereo not given)	> 100 µM (inactive)	82.6 µM (inactive)	2.95 µM (inactive)	> 100 µM (inactive)	> 100 µM (inactive)	> 100 µM (inactive)	65 µM (inactive)	39.5 µM (inactive)	> 100 µM (inactive)	> 100 µM (inactive)	21.8 µM (inactive)	4.7 µM (inactive)	> 100 µM (inactive)	> 100 µM (inactive)	13.6 µM (inactive)	> 100 µM (inactive)	87.5 µM (inactive)	> 100 µM (inactive)	4.02 µM (inactive)	> 100 µM (inactive)
CC(C)OC(=O)NNc1c(Cl)cc(Cl)cc1Cl	> 100 µM (inactive)	44.4 µM (inactive)	53.6 µM (inactive)	> 100 µM (inactive)	31.6 µM (inactive)	> 100 µM (inactive)	58.2 µM (inactive)	37.3 µM (inactive)	71.6 µM (inactive)	76.7 µM (inactive)	40.3 µM (inactive)	58.7 µM (inactive)	67.9 µM (inactive)	> 100 µM (inactive)	36.9 µM (inactive)	26.2 µM (inactive)	> 100 µM (inactive)	> 100 µM (inactive)	55.3 µM (inactive)	33.7 µM (inactive)
Cc1cc(C)c(S(=O)(=O)N(CCCN)OCCON(CCCN)S(=O)(=O)c2c(C)cc(C)cc2C)c(C)c1	23.7 µM (inactive)	7.78 µM (inactive)	2.71 µM (inactive)	5.68 µM (inactive)	5.24 µM (inactive)	10 µM (inactive)	2.67 µM (inactive)	1.97 µM (inactive)	2.17 µM (inactive)	2.44 µM (inactive)	2.59 µM (inactive)	2.64 µM (inactive)	22.1 µM (inactive)	12.6 µM (inactive)	1.73 µM (inactive)	4.67 µM (inactive)	5.26 µM (inactive)	5.01 µM (inactive)	3.12 µM (inactive)	3.39 µM (inactive)
CC1CCCc2c(C#N)c(N)nc(-c3ccc(Cl)cc3)c21 (stereo not given)	17.6 µM (inactive)	17.9 µM (inactive)	22.8 µM (inactive)	33.7 µM (inactive)	14.7 µM (inactive)	6.75 µM (inactive)	32.4 µM (inactive)	14.4 µM (inactive)	17.9 µM (inactive)	16.6 µM (inactive)	19.6 µM (inactive)	7.69 µM (inactive)	20.6 µM (inactive)	31 µM (inactive)	4.68 µM (inactive)	6.87 µM (inactive)	27.6 µM (inactive)	38.1 µM (inactive)	42.2 µM (inactive)	25.4 µM (inactive)
O=C(O)c1ccc(NC(c2ccccc2)c2ccc3cccnc3c2O)cc1 (stereo not given)	8.41 µM (inactive)	10 µM (inactive)	1.72 µM (inactive)	17.7 µM (inactive)	7.85 µM (inactive)	5.15 µM (inactive)	28.5 µM (inactive)	16.5 µM (inactive)	5.14 µM (inactive)	7.8 µM (inactive)	4.42 µM (inactive)	3.56 µM (inactive)	3.5 µM (inactive)	3.85 µM (inactive)	9.57 µM (inactive)	9.12 µM (inactive)	11.2 µM (inactive)	13.6 µM (inactive)	3.32 µM (inactive)	11.1 µM (inactive)
Cc1ccc(NC(=O)CSc2nc(C)nc3c2sc(=S)n3-c2ccccc2)cc1	8.77 µM (inactive)	4.09 µM (inactive)	9.23 µM (inactive)	> 10 µM (inactive)	5.08 µM (inactive)	7.36 µM (inactive)	2.66 µM (inactive)	> 10 µM (inactive)	> 10 µM (inactive)	> 10 µM (inactive)	> 10 µM (inactive)	> 10 µM (inactive)	4.7 µM (inactive)	6.76 µM (inactive)	> 10 µM (inactive)	1.79 µM (inactive)	> 10 µM (inactive)	8.2 µM (inactive)	9.89 µM (inactive)	> 10 µM (inactive)
CC(C)C1CC[C@H](C)C[C@@H]1OC(=O)C(C(=O)O[C@H]1C[C@@H](C)CCC1C(C)C)C(O)[C@@H]1OC(C)(C)O[C@H]1C1COC(C)(C)O1 (stereo not given in full)	16.6 µM (inactive)	19 µM (inactive)	15 µM (inactive)	18.8 µM (inactive)	20.8 µM (inactive)	13.4 µM (inactive)	15 µM (inactive)	16.8 µM (inactive)	16.6 µM (inactive)	16.8 µM (inactive)	8.13 µM (inactive)	10.7 µM (inactive)	20.4 µM (inactive)	21 µM (inactive)	> 10 µM (inactive)	14.7 µM (inactive)	18.3 µM (inactive)	26.8 µM (inactive)	9.62 µM (inactive)	24.6 µM (inactive)
CC1CC2CCCC(=O)C2=C(O)O1 (stereo not given)	> 100 µM (inactive)	81.5 µM (inactive)	> 100 µM (inactive)	> 100 µM (inactive)	86.7 µM (inactive)	> 100 µM (inactive)	> 100 µM (inactive)	> 100 µM (inactive)	> 100 µM (inactive)	> 100 µM (inactive)	> 100 µM (inactive)	> 100 µM (inactive)	> 100 µM (inactive)	> 100 µM (inactive)	> 100 µM (inactive)	> 100 µM (inactive)	> 100 µM (inactive)	> 100 µM (inactive)	> 100 µM (inactive)	> 100 µM (inactive)
CC(C)CC(=O)OC[n+]1ccc(-c2c(COC(=O)NC(C)C)c(COC(=O)NC(C)C)c3n2CCC3)cc1	38.3 µM (inactive)	> 100 µM (inactive)	64.4 µM (inactive)	> 100 µM (inactive)	> 100 µM (inactive)	> 100 µM (inactive)	> 100 µM (inactive)	> 100 µM (inactive)	> 100 µM (inactive)	> 100 µM (inactive)	76.4 µM (inactive)	32.3 µM (inactive)	> 100 µM (inactive)	> 100 µM (inactive)	> 100 µM (inactive)	> 100 µM (inactive)	> 100 µM (inactive)	> 100 µM (inactive)	6.19 µM (inactive)	> 100 µM (inactive)
Cc1ccc2c(c1)c1ccc3c(c1n2C)C(=O)C=CC3=O	1.56 µM (inactive)	1.36 µM (inactive)	0.284 µM (active)	7.33 µM (inactive)	> 4.85 µM (inactive)	> 10 µM (inactive)	3.08 µM (inactive)	3.52 µM (inactive)	6.84 µM (inactive)	9.53 µM (inactive)	1.8 µM (inactive)	0.76 µM (active)	2.96 µM (inactive)	2.18 µM (inactive)	3.66 µM (inactive)	1.97 µM (inactive)	2.18 µM (inactive)	> 10 µM (inactive)	0.27 µM (active)	2.51 µM (inactive)
O=c1[nH]nc(-c2ccccc2)n1/N=C/c1cccc([N+](=O)[O-])c1	> 100 µM (inactive)	> 100 µM (inactive)	> 100 µM (inactive)	> 100 µM (inactive)	> 100 µM (inactive)	> 100 µM (inactive)	> 100 µM (inactive)	> 100 µM (inactive)	> 100 µM (inactive)	> 100 µM (inactive)	> 100 µM (inactive)	> 100 µM (inactive)	41.4 µM (inactive)	93.5 µM (inactive)	> 100 µM (inactive)	49.8 µM (inactive)	> 100 µM (inactive)	14.9 µM (inactive)	77.8 µM (inactive)	> 100 µM (inactive)
CCn1c(-c2ccccc2)cs/c1=N\C(P(=O)(O)O)P(=O)(O)O	> 100 µM (inactive)	> 100 µM (inactive)	2.05 µM (inactive)	> 100 µM (inactive)	> 100 µM (inactive)	> 100 µM (inactive)	> 100 µM (inactive)	> 100 µM (inactive)	> 100 µM (inactive)	> 100 µM (inactive)	> 100 µM (inactive)	> 100 µM (inactive)	> 100 µM (inactive)	> 100 µM (inactive)	> 100 µM (inactive)	> 100 µM (inactive)	> 100 µM (inactive)	> 100 µM (inactive)	> 100 µM (inactive)	> 100 µM (inactive)

From ChEMBL document CHEMBL1201862, “PubChem BioAssay data set” (2004)
